# Data: patent US7671068B2, “N-(alkoxyalkyl) carbamoyl-substituted 6-phenyl-benzonaphthyridine derivatives and their use as PDE ¾ inhibitors” (NYCOMED GmbH, priority 2004, dated 2010)
# Experiments:
# [1] = test system: PDE4 (cAMP-specific) in the cytosol of human polymorphonuclear leukocytes (PMNL); assay: PDE4 inhibition, Method A (radioactive PDE assay after Thompson et al.); type: biochemical; conditions: cAMP substrate, motapizone 1 μM
# Method: (§1) The PDE activity was determined according to Thompson et al. (Adv Cycl Nucl Res 10: 69-92, 1979) with some modifications (Bauer and Schwabe, Naunyn-Schmiedeberg's Arch Pharmacol 311: 193-198, 1980). The test samples contained 20 mM Tris (pH 7.4), 5 mM MgCl2, 0.5 μM CAMP or cGMP, [^3H]cAMP or [^3H]cGMP (about 30 000 cpm/sample), the PDE isoenzyme-specific additives described in greater detail below, the indicated concentrations of inhibitor and an aliquot of the enzyme solution in a total sample volume of 200 μl. Dilution series of the compounds according to the invention were prepared in DMSO and further diluted in the samples [1:100 (v/v)], to give the desired end concentration of the inhibitors at a DMSO concentration of 1% (v/v), which for its part has only a minute effect on PDE activity.
# (§2) After preincubation at 37° C. for 5 minutes, the reaction was started by addition of the substrate (CAMP or cGMP). The samples were incubated at 37° C. for a further 15 min. The reaction was terminated by addition of 50 μl 0.2 N HCl. After cooling on ice for 10 minutes and addition of 25 μg 5′-nucleotidase (snake venom from Crotalus atrox), the mixture was again incubated at 37° C. for 10 min and the samples were then applied to QAE Sephadex A-25 columns (sample volume 1 ml). The columns were eluted with 2 ml of 30 mM ammonium formate (pH 6.0). The radioactivity of the eluate was measured and corrected by the corresponding blank values (measured in the presence of denatured protein); the blank values were less than 5% of the total radioactivity. In no case did the proportion of hydrolyzed nucleotide exceed 30% of the original substrate concentration.
# PDE4 (cAMP-specific) was investigated in the cytosol of human polymorphonuclear leukocytes (PMNL) [isolated from leukocyte concentrates, see Schudt et al., Arch Pharmacol 1991: 344, 682-690] using cAMP as substrate. The PDE3 inhibitor motapizone (1 μM) was used to suppress the PDE3 activity emanating from contaminated platelets.
# (§3) The IC50 values were determined from the concentration-inhibition curves by nonlinear regression.
# (§4) The inhibitory values of the compounds 1-16 and 22-24 have been determined according to Method A. The inhibitory values of the compounds 17-21 have been determined according to Method B.
# [2] = target: T1, PDE3 (cGMP-inhibited) in homogenates of human platelets (Homo sapiens, UniProt Q14432); assay: PDE3 inhibition, Method A (radioactive PDE assay after Thompson et al.); type: biochemical; conditions: read-out: PDE3 [−log IC50, mol/l] (converted)
# T1 construct: investigated in homogenates of human platelets; from tissue; host or cells: homogenates of human platelets
# Method: as §1, §2
# PDE3 (cGMP-inhibited) was investigated in homogenates of human platelets (see Schudt et al., Biochem Pharmacol 1991: 42, 153-162) using CAMP or cGMP as substrate.
# as §3, §4
# T1 sequence (Q14432 whole entry): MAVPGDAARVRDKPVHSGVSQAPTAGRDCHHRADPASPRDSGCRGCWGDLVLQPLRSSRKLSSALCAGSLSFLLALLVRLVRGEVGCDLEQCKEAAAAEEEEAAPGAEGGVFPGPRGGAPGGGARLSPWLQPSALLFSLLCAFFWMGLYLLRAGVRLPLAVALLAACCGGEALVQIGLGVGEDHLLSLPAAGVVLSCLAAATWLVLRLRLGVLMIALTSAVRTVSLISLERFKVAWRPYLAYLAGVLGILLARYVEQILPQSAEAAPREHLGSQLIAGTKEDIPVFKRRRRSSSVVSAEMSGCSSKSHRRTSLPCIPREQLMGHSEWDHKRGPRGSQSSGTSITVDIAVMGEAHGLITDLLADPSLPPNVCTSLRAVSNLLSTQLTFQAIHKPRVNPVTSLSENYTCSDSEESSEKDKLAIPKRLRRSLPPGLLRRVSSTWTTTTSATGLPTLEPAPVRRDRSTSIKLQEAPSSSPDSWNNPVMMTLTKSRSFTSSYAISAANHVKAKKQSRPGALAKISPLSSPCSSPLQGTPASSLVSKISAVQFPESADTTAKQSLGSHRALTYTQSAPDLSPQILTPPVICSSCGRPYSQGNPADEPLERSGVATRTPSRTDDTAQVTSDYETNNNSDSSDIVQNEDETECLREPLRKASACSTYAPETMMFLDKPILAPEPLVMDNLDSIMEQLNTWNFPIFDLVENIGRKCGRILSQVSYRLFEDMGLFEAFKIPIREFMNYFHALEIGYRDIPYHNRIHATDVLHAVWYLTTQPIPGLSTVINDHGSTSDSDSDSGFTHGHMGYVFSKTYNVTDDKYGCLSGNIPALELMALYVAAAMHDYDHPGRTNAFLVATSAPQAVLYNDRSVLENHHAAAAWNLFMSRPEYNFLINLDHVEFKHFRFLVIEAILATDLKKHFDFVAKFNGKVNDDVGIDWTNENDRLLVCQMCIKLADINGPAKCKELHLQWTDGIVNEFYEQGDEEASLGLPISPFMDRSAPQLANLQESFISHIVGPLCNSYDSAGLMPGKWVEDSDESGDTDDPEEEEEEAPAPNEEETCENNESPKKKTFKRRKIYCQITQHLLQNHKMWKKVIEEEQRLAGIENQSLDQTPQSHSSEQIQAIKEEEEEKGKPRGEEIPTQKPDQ
Compound,"PDE4 [−log IC50, mol/l] [1]",IC50 [2]
CCOc1cc2c(cc1OC)C(c1ccc(C(=O)NCCCOC(C)C)cc1)=N[C@@H]1CCN(C)C[C@H]21.Cl [Compound 1],8.9 mol/l,–
"CCOc1cc2c(cc1OC)C(c1ccc(C(=O)NC(CC)COC)cc1)=N[C@@H]1CCN(C)C[C@H]21.Cl (mixture of isomers) [Compound 3, 4-((4aR,10bS)-9-Ethoxy-8-methoxy-2-methyl-1,2,3,4,4a,10b-hexahydro-benzo [c][1,6]naphthyridin-6-yl)-N-(1(rac)-methoxymethyl-propyl)-benzamide; hydrochloride]",9.0 mol/l,1000 nM
"CCOc1cc2c(cc1OC)C(c1ccc(C(=O)N[C@@H](C)COCc3ccccc3)cc1)=N[C@@H]1CCN(C)C[C@H]21 [Compound 24, N—((S)-2-Benzyloxy-1-methyl-ethyl)-4-((4aR,10bS)-9-ethoxy-8-methoxy-2-methyl-1,2,3,4,4a,10b-hexahydro-benzo[c][1,6]naphthyridin-6-yl)-benzamide]",9.0 mol/l,251 nM
"CCOc1cc2c(cc1OC)C(c1ccc(C(=O)N[C@@H](C)COC)cc1)=N[C@@H]1CCN(C)C[C@H]21.Cl [Compound 2, 4-((4aR,10bS)-9-Ethoxy-8-methoxy-2-methyl-1,2,3,4,4a,10b-hexahydro-benzo [c][1,6]naphthyridin-6-yl)-N-((S)-2-methoxy-1-methyl-ethyl)-benzamide; hydrochloride]",8.5 mol/l,1580 nM
"CCOc1cc2c(cc1OC)C(c1ccc(C(=O)N(C(C)C)[C@H](C)COCc3ccccc3)cc1)=N[C@@H]1CCN(C)C[C@H]21 [Compound 8, N—((R)-2-Benzyloxy-1-methyl-ethyl)-4-((4aR,10bS)-9-ethoxy-8-methoxy-2-methyl-1,2,3,4,4a,10b-hexahydro-benzo[c][1,6]naphthyridin-6-yl)-N-isopropyl-benzamide]",9.8 mol/l,31.6 nM
"CCOc1cc2c(cc1OC)C(c1ccc(C(=O)N(Cc3ccccc3)[C@@H](C)COCc3ccccc3)cc1)=N[C@@H]1CCN(C)C[C@H]21 [Compound 23, N-Benzyl-N-((S)-2-benzyloxy-1-methyl-ethyl)-4-((4aR,10bS)-9-ethoxy-8-methoxy-2-methyl-1,2,3,4,4a,10b-hexahydro-benzo[c][1,6]naphthyridin-6-yl)-benzamide]",9.5 mol/l,158 nM
"CCOc1cc2c(cc1OC)C(c1ccc(C(=O)NCCCOC(C)C)cc1)=N[C@@H]1CCN(C)C[C@H]21.Cl [Compound 1, 4-(4aR,10bS)-9-Ethoxy-8-methoxy-2-methyl-1,2,3,4,4a,10b-hexahydro-benzo [c][1,6]naphthyridin-6-yl)-N-(3-isopropoxy-propyl)-benzamide; hydrochloride]",–,631 nM
"CCOc1cc2c(cc1OC)C(c1ccc(C(=O)N(C)[C@H](COCc3ccccc3)CC(C)C)cc1)=N[C@@H]1CCN(C)C[C@H]21 [Compound 22, N—((S)-1-Benzyloxymethyl-3-methyl-butyl)-4-((4aR,10bS)-9-ethoxy-8-methoxy-2-methyl-1,2,3,4,4a,10b-hexahydro-benzo[c][1,6]naphthyridin-6-yl)-N-methyl-benzamide]",9.4 mol/l,63.1 nM
"CCCCOCCCNC(=O)c1ccc(C2=N[C@@H]3CCN(C)C[C@@H]3c3cc(OCC)c(OC)cc32)cc1.Cl [Compound 16, N-(3-Butoxy-propyl)-4-((4aR,10bS)-9-ethoxy-8-methoxy-2-methyl-1,2,3,4,4a,10b-hexahydro-benzo [c][1,6]naphthyridin-6-yl)-benzamide; hydrochloride]",8.5 mol/l,398 nM
"CCOc1cc2c(cc1OC)C(c1ccc(C(=O)N(C(C)C)[C@@H](C)COCc3ccccc3)cc1)=N[C@@H]1CCN(C)C[C@H]21 [Compound 9, N—((S)-2-Benzyloxy-1-methylethyl)-4-((4aR,10bS)-9-ethoxy-8-methoxy-2-methyl-1,2,3,4,4a,10b-hexahydro-benzo[c][1,6]naphthyridin-6-yl)-N-isopropyl-benzamide]",9.8 mol/l,15.8 nM
"CCOc1cc2c(cc1OC)C(c1ccc(C(=O)N(C(C)C)C(C)CCOCc3ccccc3)cc1)=N[C@@H]1CCN(C)C[C@H]21 (mixture of isomers) [Compound 10, N-(3-Benzyloxy-1-methyl-propyl)-4-((4aR,10bS)-9-ethoxy-8-methoxy-2-methyl-1,2,3,4,4a,10b-hexahydro-benzo[c][1,6]naphthyridin-6-yl)-N-isopropyl-benzamide]",8.9 mol/l,100 nM

# More lines, now with the values ahead:
"PDE4 [−log IC50, mol/l] [1]",IC50 [2],Compound
9.9 mol/l,200 nM,"CCOc1cc2c(cc1OC)C(c1ccc(C(=O)N(CCCOC)C3CCCCC3)cc1)=N[C@@H]1CCN(C)C[C@H]21.Cl [Compound 13, N-Cyclohexyl-4-((4aR,10bS)-9-ethoxy-8-methoxy-2-methyl-1,2,3,4,4a,10b-hexahydro-benzo [c][1,6]naphthyridin-6-yl)-N-(3-methoxy-propyl)-benzamide; hydrochloride]"
7.8 mol/l,1000 nM,"CCOc1cc2c(cc1OC)C(c1ccc(C(=O)NCCOC)cc1)=N[C@@H]1CCN(C)C[C@H]21.Cl [Compound 14, 4-((4aR,10bS)-9-Ethoxy-8-methoxy-2-methyl-1,2,3,4,4a,10b-hexahydro-benzo [c][1,6]naphthyridin-6-yl)-N-(2-methoxy-ethyl)-benzamide; hydrochloride]"
8.0 mol/l,251 nM,"CCOc1cc2c(cc1OC)C(c1ccc(C(=O)N(C)CCOC)cc1)=N[C@@H]1CCN(C)C[C@H]21.Cl [Compound 15, 4-((4aR,10bS)-9-Ethoxy-8-methoxy-2-methyl-1,2,3,4,4a,10b-hexahydro-benzo [c][1,6]naphthyridin-6-yl)-N-(2-methoxy-ethyl)-N-methyl-benzamide; hydrochloride]"
8.8 mol/l,79.4 nM,"CCOc1cc2c(cc1OC)C(c1ccc(C(=O)N(CCOC)C(C)C)cc1)=N[C@@H]1CCN(C)C[C@H]21.Cl [Compound 7, 4-((4aR,10bS)-9-Ethoxy-8-methoxy-2-methyl-1,2,3,4,4a,10b-hexahydro-benzo [c][1,6]naphthyridin-6-yl)-N-isopropyl-N-(2-methoxy-ethyl)-benzamide; hydrochloride]"
9.0 mol/l,79.4 nM,"CCOc1cc2c(cc1OC)C(c1ccc(C(=O)N(C(C)C)[C@@H](C)COC)cc1)=N[C@@H]1CCN(C)C[C@H]21.Cl [Compound 11, 4-((4aR,10bS)-9-Ethoxy-8-methoxy-2-methyl-1,2,3,4,4a,10b-hexahydro-benzo [c][1,6]naphthyridin-6-yl)-N-isopropyl-N-((S)-2-methoxy-1-methyl-ethyl)-benzamide; hydrochloride]"
9.2 mol/l,126 nM,"CCCN(CCOC)C(=O)c1ccc(C2=N[C@@H]3CCN(C)C[C@@H]3c3cc(OCC)c(OC)cc32)cc1.Cl [Compound 6, 4-((4aR,10bS)-9-Ethoxy-8-methoxy-2-methyl-1,2,3,4,4a,10b-hexahydro-benzo [c][1,6]naphtpyridin-6-yl)-N-(2-methoxy-ethyl)-N-propyl-benzamide; hydrochloride]"
8.9 mol/l,200 nM,"CCOc1cc2c(cc1OC)C(c1ccc(C(=O)N(CC)CCOC)cc1)=N[C@@H]1CCN(C)C[C@H]21.Cl [Compound 5, 4-((4aR,10bS)-9-Ethoxy-8-methoxy-2-methyl-1,2,3,4,4a,10b-hexahydro-benzo [c][1,6]naphthyridin-6-yl)-N-ethyl-N-(2-methoxy-ethyl)-benzamide; hydrochloride]"
9.4 mol/l,158 nM,"CCOc1cc2c(cc1OC)C(c1ccc(C(=O)N(CCOC)C3CCCCC3)cc1)=N[C@@H]1CCN(C)C[C@H]21.Cl [Compound 12, N-Cyclohexyl-4-((4aR,10bS)-9-ethoxy-8-methoxy-2-methyl-1,2,3,4,4a,10b-hexahydro-benzo [c][1,6]naphthyridin-6-yl)-N-(2-methoxy-ethyl)-benzamide; hydrochloride]"
